Data on 32 compounds can be found in patent US8846698B2, “Pyrrolo[2,3-d]pyrimidine tropomysin-related kinase inhibitors” (Pfizer Limited, priority 2011, dated 2014).

The target in the assay is TRKA (Homo sapiens (Human), UniProt P04629). As to the kind of experiment: Isolated TRK enzyme assay (HTRF KinEASE-TK), TRKA. Type of assay: biochemical. The conditions noted are these: read-out: Trka enzyme (IC50).
TRKA, sequence (P04629 441-796): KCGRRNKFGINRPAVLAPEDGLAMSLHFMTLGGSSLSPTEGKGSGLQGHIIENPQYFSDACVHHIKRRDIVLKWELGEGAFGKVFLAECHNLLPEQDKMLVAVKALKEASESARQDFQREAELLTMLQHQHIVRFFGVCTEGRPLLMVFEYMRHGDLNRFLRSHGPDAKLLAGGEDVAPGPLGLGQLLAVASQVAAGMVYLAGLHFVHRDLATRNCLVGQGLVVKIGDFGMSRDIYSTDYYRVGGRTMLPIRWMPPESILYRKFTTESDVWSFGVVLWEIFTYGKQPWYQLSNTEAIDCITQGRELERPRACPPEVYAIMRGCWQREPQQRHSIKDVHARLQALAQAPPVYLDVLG

Turning to `CC(C)n1cc(C(=O)c2cncc(NC(=O)Cn3cccn3)c2)c2cncnc21` [Example 114, N-{5-[(7-isopropyl-7H-pyrrolo[2,3-d]pyrimidin-5-yl)carbonyl]pyridin-3-yl}-2-(1H-pyrazol-1-yl)acetamide], the IC50 is 976 nM.

`Cc1cc(C)n(CC(=O)Nc2cncc(C(=O)c3cn(C(C)C)c4ncncc34)c2)n1` [Example 115, 2-(3,5-dimethyl-1H-pyrazol-1-yl)-N-{5-[(7-isopropyl-7H-pyrrolo[2,3-d]pyrimidin-5-yl)carbonyl]pyridin-3-yl}acetamide]: the IC50 turned out to be 102 nM. The same measure for `Cc1[nH]c2ccccc2c1CC(=O)Nc1cncc(C(=O)c2cn(C(C)C)c3ncncc23)c1` [Example 116, N-{5-[(7-isopropyl-7H-pyrrolo[2,3-d]pyrimidin-5-yl)carbonyl]pyridin-3-yl}-2-(2-methyl-1H-indol-3-yl)acetamide]: 103 nM; for `COc1ccc2[nH]cc(CC(=O)Nc3cncc(C(=O)c4cn(C(C)C)c5ncncc45)c3)c2c1` [Example 117, N-{5-[(7-isopropyl-7H-pyrrolo[2,3-d]pyrimidin-5-yl)carbonyl]pyridin-3-yl}-2-(5-methoxy-1H-indol-3-yl)acetamide]: 68.4 nM. The same measure for `CC(C)n1cc(C(=O)c2cncc(NC(=O)Cc3cccnc3)c2)c2cncnc21` [Example 118, N-{5-[(7-isopropyl-7H-pyrrolo[2,3-d]pyrimidin-5-yl)carbonyl]pyridin-3-yl}-2-pyridin-3-ylacetamide]: 2550 nM. With `CC(C)n1cc(C(=O)c2cncc(NC(=O)Cn3nnc4cc(Cl)ccc43)c2)c2cncnc21` [Example 119, 2-(5-chloro-1H-benzotriazol-1-yl)-N-{5-[(7-isopropyl-7H-pyrrolo[2,3-d]pyrimidin-5-yl)carbonyl]pyridin-3-yl}acetamide] the figure was 233 nM; with `CC(C)n1cc(C(=O)c2cncc(NC(=O)Cn3ccc(-c4cccs4)n3)c2)c2cncnc21` [Example 120, N-{5-[(7-isopropyl-7H-pyrrolo[2,3-d]pyrimidin-5-yl)carbonyl]pyridin-3-yl}-2-[3-(2-thienyl)-1H-pyrazol-1-yl]acetamide], 53 nM. For the compound `Cc1ccn2cc(CC(=O)Nc3cncc(C(=O)c4cn(C(C)C)c5ncncc45)c3)nc2n1` [Example 121, N-{5-[(7-isopropyl-7H-pyrrolo[2,3-d]pyrimidin-5-yl)carbonyl]pyridin-3-yl}-2-(7-methylimidazo[1,2-a]pyrimidin-2-yl)acetamide], the IC50 amounted to 5200 nM. With `Cc1nc(C)c2ncn(CC(=O)Nc3cncc(C(=O)c4cn(C(C)C)c5ncncc45)c3)c2n1` [Example 122, 2-(2,6-dimethyl-9H-purin-9-yl)-N-{5-[(7-isopropyl-7H-pyrrolo[2,3-d]pyrimidin-5-yl)carbonyl]pyridin-3-yl}acetamide] the figure was 5840 nM; with `CC(C)n1cc(C(=O)c2cncc(NC(=O)Cn3ncc4ccc([N+](=O)[O-])cc43)c2)c2cncnc21` [Example 123, N-{5-[(7-isopropyl-7H-pyrrolo[2,3-d]pyrimidin-5-yl)carbonyl]pyridin-3-yl}-2-(6-nitro-1H-indazol-1-yl)acetamide], 143 nM. For the compound `CC(C)n1cc(C(=O)c2cncc(NC(=O)Cc3nn(C)c4ccc(Cl)cc34)c2)c2cncnc21` [Example 124, 2-(5-chloro-1-methyl-1H-indazol-3-yl)-N-{5-[(7-isopropyl-7H-pyrrolo[2,3-d]pyrimidin-5-yl)carbonyl]pyridin-3-yl}acetamide], the IC50 amounted to 244 nM. The same measure for `Cc1[nH]c2ccc(F)cc2c1CC(=O)Nc1cncc(C(=O)c2cn(C(C)C)c3ncncc23)c1` [Example 125, 2-(5-fluoro-2-methyl-1H-indol-3-yl)-N-{5-[(7-isopropyl-7H-pyrrolo[2,3-d]pyrimidin-5-yl)carbonyl]pyridin-3-yl}acetamide]: 148 nM. Take `CC(C)n1cc(C(=O)c2cncc(NC(=O)Cc3cn4cc(Cl)ccc4n3)c2)c2cncnc21` [Example 126, 2-(6-chloroimidazo[1,2-a]pyridin-2-yl)-N-{5-[(7-isopropyl-7H-pyrrolo[2,3-d]pyrimidin-5-yl)carbonyl]pyridin-3-yl}acetamide]: the IC50 is 95.7 nM. The same measure for `Cc1nc2ccccc2n1CC(=O)Nc1cncc(C(=O)c2cn(C(C)C)c3ncncc23)c1` [Example 127, N-{5-[(7-isopropyl-7H-pyrrolo[2,3-d]pyrimidin-5-yl)carbonyl]pyridin-3-yl}-2-(2-methyl-1H-benzimidazol-1-yl)acetamide]: 1330 nM; for `CC(C)n1cc(C(=O)c2cncc(NC(=O)Cc3cn4ccccc4n3)c2)c2cncnc21` [Example 128, 2-imidazo[1,2-a]pyridin-2-yl-N-{5-[(7-isopropyl-7H-pyrrolo[2,3-d]pyrimidin-5-yl)carbonyl]pyridin-3-yl}acetamide]: 206 nM. With `COc1ccc2c(ccn2CC(=O)Nc2cncc(C(=O)c3cn(C(C)C)c4ncncc34)c2)n1` [Example 129, N-{5-[(7-isopropyl-7H-pyrrolo[2,3-d]pyrimidin-5-yl)carbonyl]pyridin-3-yl}-2-(5-methoxy-1H-pyrrolo[3,2-b]pyridin-1-yl)acetamide] the figure was 3860 nM. The same measure for `Cc1ccnn1CC(=O)Nc1cncc(C(=O)c2cn(C(C)C)c3ncncc23)c1` [Example 130, N-{5-[(7-isopropyl-7H-pyrrolo[2,3-d]pyrimidin-5-yl)carbonyl]pyridin-3-yl}-2-(5-methyl-1H-pyrazol-1-yl)acetamide]: 284 nM. For the compound `Cc1cccc2ncn(CC(=O)Nc3cncc(C(=O)c4cn(C(C)C)c5ncncc45)c3)c12` [Example 131, N-{5-[(7-isopropyl-7H-pyrrolo[2,3-d]pyrimidin-5-yl)carbonyl]pyridin-3-yl}-2-(7-methyl-1H-benzimidazol-1-yl)acetamide], the IC50 turned out to be 831 nM. With `CC(C)n1cc(C(=O)c2cncc(NC(=O)Cc3c[nH]c4ccccc34)c2)c2cncnc21` [Example 132, 2-(1H-indol-3-yl)-N-{5-[(7-isopropyl-7H-pyrrolo[2,3-d]pyrimidin-5-yl)carbonyl]pyridin-3-yl}acetamide] the figure was 131 nM. With `CC(C)n1cc(C(=O)c2cncc(NC(=O)Cn3cnc4ccccc43)c2)c2cncnc21` [Example 133, 2-(1H-benzimidazol-1-yl)-N-{5-[(7-isopropyl-7H-pyrrolo[2,3-d]pyrimidin-5-yl)carbonyl]pyridin-3-yl}acetamide] the figure was 681 nM. The same measure for `Cc1cc(CC(=O)Nc2cncc(C(=O)c3cn(C(C)C)c4ncncc34)c2)[nH]n1` [Example 134, N-{5-[(7-isopropyl-7H-pyrrolo[2,3-d]pyrimidin-5-yl)carbonyl]pyridin-3-yl}-2-(3-methyl-1H-pyrazol-5-yl)acetamide]: 330 nM; for `CC(C)n1cc(C(=O)c2cncc(NC(=O)Cn3nnc4ccccc43)c2)c2cncnc21` [Example 135, 2-(1H-benzotriazol-1-yl)-N-{5-[(7-isopropyl-7H-pyrrolo[2,3-d]pyrimidin-5-yl)carbonyl]pyridin-3-yl}acetamide]: 312 nM. For `CC(C)n1cc(C(=O)c2cncc(NC(=O)Cc3cn(C)c4ccccc34)c2)c2cncnc21` [Example 136, N-{5-[(7-isopropyl-7H-pyrrolo[2,3-d]pyrimidin-5-yl)carbonyl]pyridin-3-yl}-2-(1-methyl-1H-indol-3-yl)acetamide], the IC50 amounted to 334 nM. The same measure for `CC(C)n1cc(C(=O)c2cncc(NC(=O)Cc3cc(-c4ccccc4)c[nH]3)c2)c2cncnc21` [Example 137, N-{5-[(7-isopropyl-7H-pyrrolo[2,3-d]pyrimidin-5-yl)carbonyl]pyridin-3-yl}-2-(4-phenyl-1H-pyrrol-2-yl)acetamide]: 496 nM; for `CCc1nc2cccnc2n1CC(=O)Nc1cncc(C(=O)c2cn(C(C)C)c3ncncc23)c1` [Example 138, 2-(2-ethyl-3H-imidazo[4,5-b]pyridin-3-yl)-N-{5-[(7-isopropyl-7H-pyrrolo[2,3-d]pyrimidin-5-yl)carbonyl]pyridin-3-yl}acetamide]: 8310 nM; for `CC(C)n1cc(C(=O)c2cncc(NC(=O)Cc3c[nH]c4ccc(Cl)cc34)c2)c2cncnc21` [Example 139, 2-(5-chloro-1H-indol-3-yl)-N-{5-[(7-isopropyl-7H-pyrrolo[2,3-d]pyrimidin-5-yl)carbonyl]pyridin-3-yl}acetamide]: 65.7 nM. With `CC(C)n1cc(C(=O)c2cncc(NC(=O)Cc3ccn(-c4ccccc4)c3)c2)c2cncnc21` [Example 140, N-{5-[(7-isopropyl-7H-pyrrolo[2,3-d]pyrimidin-5-yl)carbonyl]pyridin-3-yl}-2-(1-phenyl-1H-pyrrol-3-yl)acetamide] the figure was 219 nM. The same measure for `Cc1ccc2[nH]cc(CC(=O)Nc3cncc(C(=O)c4cn(C(C)C)c5ncncc45)c3)c2c1` [Example 141, N-{5-[(7-isopropyl-7H-pyrrolo[2,3-d]pyrimidin-5-yl)carbonyl]pyridin-3-yl}-2-(5-methyl-1H-indol-3-yl)acetamide]: 59.5 nM; for `CCc1nc2ccccc2n1CC(=O)Nc1cncc(C(=O)c2cn(C(C)C)c3ncncc23)c1` [Example 142, 2-(2-ethyl-1H-benzimidazol-1-yl)-N-{5-[(7-isopropyl-7H-pyrrolo[2,3-d]pyrimidin-5-yl)carbonyl]pyridin-3-yl}acetamide]: 1380 nM. Turning to `CC(C)n1cc(C(=O)c2cncc(NC(=O)Cc3cn4cccnc4n3)c2)c2cncnc21` [Example 143, 2-imidazo[1,2-a]pyrimidin-2-yl-N-{5-[(7-isopropyl-7H-pyrrolo[2,3-d]pyrimidin-5-yl)carbonyl]pyridin-3-yl}acetamide], the concentration for half-maximal inhibition (IC50) is 4730 nM. Regarding `CC(C)n1cc(C(=O)c2cncc(NC(=O)Cc3n[nH]c4ccccc34)c2)c2cncnc21` [Example 144, 2-(1H-indazol-3-yl)-N-{5-[(7-isopropyl-7H-pyrrolo[2,3-d]pyrimidin-5-yl)carbonyl]pyridin-3-yl}acetamide], the IC50 was 71.5 nM.

`COc1cc(F)cc2ccn(CC(=O)Nc3cncc(C(=O)c4cn(C(C)C)c5ncncc45)c3)c12` [Example 145, 2-(5-fluoro-7-methoxy-1H-indol-1-yl)-N-{5-[(7-isopropyl-7H-pyrrolo[2,3-d]pyrimidin-5-yl)carbonyl]pyridin-3-yl}acetamide]: the IC50 stood at 37.4 nM.

What is called IC50 is the concentration at which inhibition is half-maximal.
